From US8765730B2 (Hoffmann-La Roche Inc, priority 2010, dated 2014)

Each molecule was assayed against T1, human GPBAR1 receptor (Homo sapiens, UniProt Q8TDU6) (assay: functional cAMP assay in CHO-dhfr(minus) cells expressing human GPBAR1 receptors). Settings: functional cAMP assay, 30 min at 30° C., read-out: human EC50.
T1 construct: expressed in transfected cells
T1 sequence (Q8TDU6 1-330): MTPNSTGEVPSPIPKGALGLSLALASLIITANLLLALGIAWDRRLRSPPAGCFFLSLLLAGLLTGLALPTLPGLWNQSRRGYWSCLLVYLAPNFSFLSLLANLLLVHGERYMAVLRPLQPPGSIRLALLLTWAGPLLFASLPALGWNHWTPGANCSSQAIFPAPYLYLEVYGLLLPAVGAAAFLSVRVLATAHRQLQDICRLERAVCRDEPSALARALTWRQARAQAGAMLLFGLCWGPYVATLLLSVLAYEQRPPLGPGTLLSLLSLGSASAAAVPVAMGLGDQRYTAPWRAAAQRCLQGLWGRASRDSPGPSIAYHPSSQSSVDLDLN
Type: cell-based
Experimental: The final clone was verified by DNA sequence analysis. The plasmid was transfected into CHO cells deficient in dihydrofolate reductase activity (CHO-dhfr−) using Lipofectamine plus (Invitrogen). Clones were isolated in limited dilution conditions and identified by activities in the cAMP assay using lithocholic acid as agonist.
The growth medium was exchanged with Krebs Ringer Bicarbonate buffer with 1 mM IBMX and incubated at 30° C. for 30 min. Compounds were added to a final assay volume of 100 μl and incubated for 30 min at 30° C. […] The time-resolved energy transfer is measured by a TRF reader (Evotec Technologies GmbH, Hamburg Germany), equipped with a ND:YAG laser as excitation source.
EC50 values were determined using Activity Base analysis (ID Business Solution, Limited). […] Specificity for GPBAR1 was tested in non-transfected CHO cells in the same assay as above.

Row | EC50 | SMILES
1 | 31 nM | Cc1cc(/C(C[C@H](c2ccc(C(=O)NCCO)cc2)c2ccccc2C)=N/O)ccn1 [Example 273, N-(2-Hydroxy-ethyl)-4-[(R)-3-[(E)-hydroxyimino]-3-(2-methyl-pyridin-4-yl)-1-o-tolyl-propyl]-benzamide]

Same assay, conditions: human EC50, functional cAMP assay, 30 min at 30° C.

Row | SMILES | EC50
2 | O=C(O)c1cccc(C(C/C(=N\O)c2ccncc2)c2ccccc2)c1 (stereo not shown) [Example 69, 3-{3-[(E)-Hydroxyimino]-1-phenyl-3-pyridin-4-yl-propyl}-benzoic acid] | 1890 nM
3 | CS(=O)(=O)c1ccc(-c2ccc(C(C/C(=N\O)c3ccncc3)c3ccccc3)cc2)cc1 (stereo not shown) [Example 20, (E)-3-(4′-Methanesulfonyl-biphenyl-4-yl)-3-phenyl-1-pyridin-4-yl-propan-1-one oxime] | 66 nM
4 | Cc1ccccc1C(C/C(=N/O)c1ccncc1)c1ccc(-c2cncnc2)cc1 (single isomer, unassigned; (-)) [Example 37, (−)-(Z)-1-pyridin-4-yl-3-(4-pyrimidin-5-yl-phenyl)-3-o-tolyl-propan-1-one oxime] | 2200 nM
5 | Cc1cc(C(CC(c2cccc(-c3ccc(C(=O)O)nc3)c2)c2ccccc2C)=NO)ccn1 (racemic) [Example 99, 5-{3-[3-[Hydroxyimino]-3-(2-methyl-pyridin-4-yl)-1-o-tolyl-propyl]-phenyl}-pyridine-2-carboxylic acid] | 5050 nM
6 | O/N=C(\CC(c1ccccc1)c1ccccc1)c1ccncc1 [Example 14, (E)-3,3-Diphenyl-1-pyridin-4-yl-propan-1-one oxime] | 52 nM
7 | ON=C(CC(c1ccccc1)c1ccccc1)c1cc(F)ncc1Cl (racemic) [Example 58, 1-(5-Chloro-2-fluoro-pyridin-4-yl)-3,3-diphenyl-propan-1-one oxime] | 76 nM
8 | Cc1ccccc1C(CC(=NO)c1ccncc1)c1cccc(-c2cccc(S(C)(=O)=O)c2)c1 (racemic) [Example 30, 3-(3′-Methanesulfonyl-biphenyl-3-yl)-1-pyridin-4-yl-3-o-tolyl-propan-1-one oxime] | 181 nM
9 | Cc1cc(C(CC(c2ccc(CCCCC(=O)O)cc2)c2ccccc2C)=NO)ccn1 (racemic) [Example 115, 5-{4-[3-[Hydroxyimino]-3-(2-methyl-pyridin-4-yl)-1-o-tolyl-propyl]-phenyl}-pentanoic acid] | 41 nM
10 | Cc1cc(C(CC(c2ccc(C#CCCC(=O)O)cc2)c2ccccc2C)=NO)ccn1 (racemic) [Example 111, 5-{4-[3-[Hydroxyimino]-3-(2-methyl-pyridin-4-yl)-1-o-tolyl-propyl]-phenyl}-pent-4-ynoic acid] | 27 nM
11 | Cc1cc(C(CC(c2ccc(-c3ccc(C(=O)NCC(=O)O)cc3)cc2)c2ccccc2C)=NO)ccn1 (racemic) [Example 90, ({4′-[3-[Hydroxyimino]-3-(2-methyl-pyridin-4-yl)-1-o-tolyl-propyl]-biphenyl-4-carbonyl}-amino)-acetic acid] | 10 nM
12 | Cc1ccc(C(CC(=NO)c2ccncc2)c2ccc(N(C)C)cc2)cc1C (racemic) [Example 17, 3-(4-Dimethylamino-phenyl)-3-(3,4-dimethyl-phenyl)-1-pyridin-4-yl-propan-1-one oxime] | 380 nM
13 | Cc1ccccc1C(CC(=NO)c1ccncc1)c1cccc(Br)c1 (racemic) [Example 11, 3-(3-Bromo-phenyl)-1-pyridin-4-yl-3-o-tolyl-propan-1-one oxime] | 40 nM
14 | COCCN(C)c1ccc(C(C/C(=N\O)c2ccncc2)c2ccccc2C)cc1 (stereo not shown) [Example 39, (E)-3-{4-[(2-Methoxy-ethyl)-methyl-amino]-phenyl}-1-pyridin-4-yl-3-o-tolyl-propan-1-one oxime] | 75 nM

Results, then the molecule that gave them:

Row | EC50 | SMILES
15 | 43 nM | Cc1ccccc1C(C/C(=N\O)c1ccc(=O)n(C)c1)c1ccc(Oc2cccc(C(=O)O)c2)cc1F (stereo not shown) [Example 235, 3-{3-Fluoro-4-[3-[(E)-hydroxyimino]-3-(1-methyl-6-oxo-1,6-dihydro-pyridin-3-yl)-1-o-tolyl-propyl]-phenoxy}-benzoic acid]
16 | 270 nM | COC(=O)c1ccc(-c2ccc(C(C/C(=N\O)c3ccnc(C)c3)c3ccc(Cl)cc3F)cc2)cc1OC (stereo not shown) [Example 454, 4′-[1-(4-Chloro-2-fluoro-phenyl)-3-[(E)-hydroxyimino]-3-(2-methyl-pyridin-4-yl)-propyl]-3-methoxy-biphenyl-4-carboxylic acid methyl ester]
17 | 197 nM | Cc1cc(Cl)ccc1C(C/C(=N\O)c1ccc(=O)n(C)c1)c1ccc(OCCCC(=O)O)c(F)c1 (stereo not shown) [Example 327, 4-{4-[1-(4-Chloro-2-methyl-phenyl)-3-[(E)-hydroxyimino]-3-(1-methyl-6-oxo-1,6-dihydro-pyridin-3-yl)-propyl]-2-fluoro-phenoxy}-butyric acid]
18 | 18 nM | COCCN(C)c1ccc([C@@H](C/C(=N\O)c2ccnc(C)c2)c2ccccc2C)cc1 [Example 267, (E,R)-3-{4-[(2-Methoxy-ethyl)-methyl-amino]-phenyl}-1-(2-methyl-pyridin-4-yl)-3-o-tolyl-propan-1-one oxime]
19 | 28 nM | Cc1cc(/C(C[C@H](c2ccc([C@H]3CC[C@H](C(=O)O)CC3)cc2)c2ccc(Cl)cc2C)=N/O)ccn1 [Example 504, Trans-4-(4-((R,E)-1-(4-Chloro-2-methylphenyl)-3-(hydroxyimino)-3-(2-methylpyridin-4-yl)propyl)phenyl)cyclohexanecarboxylic acid]
20 | 93 nM | Cc1ccccc1C(C/C(=N\O)c1ccc(=O)n(C)c1)c1ccc(C(=O)NCCO)cc1 (stereo not shown) [Example 208, N-(2-Hydroxy-ethyl)-4-[3-[(E)-hydroxyimino]-3-(1-methyl-6-oxo-1,6-dihydro-pyridin-3-yl)-1-o-tolyl-propyl]-benzamide]
21 | 26 nM | Cc1cc(/C(C[C@H](c2ccc(S(C)(=O)=O)cc2)c2ccc(Cl)cc2C)=N/O)ccn1 [Example 359, (R)-3-(4-Chloro-2-methyl-phenyl)-3-(4-methanesulfonyl-phenyl)-1-(2-methyl-pyridin-4-yl)-propan-1-one oxime]
22 | 14 nM | Cc1cc(Cl)ccc1C(C/C(=N\O)c1ccc(=O)n(C)c1)c1ccc(CO)cc1 (stereo not shown) [Example 337, (E)-5-(3-(4-Chloro-2-methylphenyl)-1-(hydroxyimino)-3-(4-(hydroxymethyl)phenyl)-propyl)-1-methylpyridin-2(1H)-one]
23 | 137 nM | Cc1cc(Cl)ccc1C(C/C(=N\O)c1ccc(=O)n(C)c1)c1ccc(Oc2ccc(Cl)c(C(=O)O)c2)c(F)c1 (stereo not shown) [Example 326, 2-Chloro-5-{4-[1-(4-chloro-2-methyl-phenyl)-3-[(E)-hydroxyimino]-3-(1-methyl-6-oxo-1,6-dihydro-pyridin-3-yl)-propyl]-2-fluoro-phenoxy}-benzoic acid]
24 | 70 nM | Cc1ccccc1C(C/C(=N\O)c1ccc(=O)n(C)c1)c1ccc(C(=O)NC[C@@H](C)O)cc1 (stereo partly drawn) [Example 248, 4-((E)-3-(Hydroxyimino)-3-(1-methyl-6-oxo-1,6-dihydropyridin-3-yl)-1-o-tolylpropyl)-N-((R)-2-hydroxypropyl)benzamide]
25 | 3210 nM | Cc1ccccc1[C@H](C/C(Cc1ccccn1)=N\O)c1ccc(Br)cc1 [Example 263, (E,R)-4-(4-bromophenyl)-1-(pyridin-2-yl)-4-o-tolylbutan-2-one oxime]
26 | 49 nM | Cc1cc(F)ccc1C(C/C(=N\O)c1ccc(=O)n(C)c1)c1ccc(-c2ccc(C(=O)O)cc2)cc1 (stereo not shown) [Example 225, (E)-4′-(1-(4-Fluoro-2-methylphenyl)-3-(hydroxyimino)-3-(1-methyl-6-oxo-1,6-dihydropyridin-3-yl)propyl)biphenyl-4-carboxylic acid]
27 | 350 nM | Cc1cc(C(=O)O)ccc1-c1ccc([C@@H](C/C(=N\O)c2ccc(=O)n(C)c2)c2ccc(Cl)cc2F)cc1 (single isomer, unassigned) [Example 465, 4′-[(−)-1-(4-Chloro-2-fluoro-phenyl)-3-[(E)-hydroxyimino]-3-(1-methyl-6-oxo-1,6-dihydro-pyridin-3-yl)-propyl]-2-methyl-biphenyl-4-carboxylic acid]
28 | 1930 nM | Cn1cc(/C(CC(c2ccc(Br)cc2)C2CCCC2)=N\O)ccc1=O (stereo not shown) [Example 173, 5-{3-(4-Bromo-phenyl)-3-cyclopentyl-1-[(Z)-hydroxyimino]-propyl}-1-methyl-1H-pyridin-2-one]
29 | 165 nM | COC(=O)CC(=O)Nc1ccc(-c2ccc(C(C/C(=N\O)c3ccc(=O)n(C)c3)c3ccc(F)cc3C)cc2)cc1 (stereo not shown) [Example 399, N-{4′-[1-(4-Fluoro-2-methyl-phenyl)-3-[(E)-hydroxyimino]-3-(1-methyl-6-oxo-1,6-dihydro-pyridin-3-yl)-propyl]-biphenyl-4-yl}-malonamic acid methyl ester]
30 | 4 nM | CCn1cc(/C(CC(c2ccc(Br)cc2)c2ccccc2C)=N/O)ccc1=O (stereo not shown) [Example 164, 5-{3-(4-Bromo-phenyl)-1-[(E)-hydroxyimino]-3-o-tolyl-propyl}-1-ethyl-1H-pyridin-2-one]
31 | 19 nM | Cc1ccccc1C(C/C(=N\O)c1ccc(=O)n(C)c1)c1ccc(Br)cc1F (stereo not shown) [Example 193, 5-{3-(4-Bromo-2-fluoro-phenyl)-1-[(E)-hydroxyimino]-3-o-tolyl-propyl}-1-methyl-1H-pyridin-2-one]
